Among the data in patent US7582611B2, “Motilide compounds” (Pfizer Inc., priority 2005, dated 2009) are EC50 and MIC values, retold here.

Experiment [1] concerns the target T1, Motilin Receptor (Oryctolagus cuniculus, UniProt G1T803).
T1 construct: strips of longitudinal smooth muscle were sliced from the segments; from tissue; host or cells: rabbit duodenum longitudinal smooth muscle strips
As to the kind of experiment: Tissue based assay for motilin agonist potency (rabbit duodenum contractility). The class given is cell-based. The settings on record: rabbit duodenum strips, contraction normalized to 1 μM carbachol; read-out: Motilin Receptor Agonist Activity (EC50). Put shortly:
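Longitudinal smooth-muscle strips of rabbit duodenum, mucosa removed, in oxygenated Krebs at 37 °C under 1.5 g tension; auxotonic contractions. Cumulative doses at ~2 min intervals, then 1 μM carbachol; responses minus basal tension, normalized to carbachol, fitted to R=(Rmax·C)/(EC50+C) for EC50.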

Experiment [2] concerns Streptococcus pneumoniae ATCC 6301. The experiment in a line: Evaluation of antibacterial activity (MIC, serial dilutions on 96-well microtiter plates). Type of experiment: cell-based. The settings on record: ATCC6301, read-out: Antibacterial Activity (MIC, μg/mL).

≈ marks a conversion by molar mass, not a printed value. Where only a bound is given, the exact number is not on record here.

T1 sequence (G1T803 1-400): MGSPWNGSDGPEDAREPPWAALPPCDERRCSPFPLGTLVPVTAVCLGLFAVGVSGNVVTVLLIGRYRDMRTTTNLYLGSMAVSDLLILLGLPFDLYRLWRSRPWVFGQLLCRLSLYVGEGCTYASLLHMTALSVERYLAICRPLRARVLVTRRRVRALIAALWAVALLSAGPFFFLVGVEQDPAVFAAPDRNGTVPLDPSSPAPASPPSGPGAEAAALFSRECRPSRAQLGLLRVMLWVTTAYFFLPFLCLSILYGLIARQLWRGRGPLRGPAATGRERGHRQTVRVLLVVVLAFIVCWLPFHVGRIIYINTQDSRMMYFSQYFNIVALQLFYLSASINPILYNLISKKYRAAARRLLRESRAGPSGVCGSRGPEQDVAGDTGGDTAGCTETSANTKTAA

By EC50 is commonly meant the concentration that produces a half-maximal response. `CC[C@H]1OC(=O)[C@H](C)[C@@H](O[C@H]2C[C@@](C)(OC)[C@@H](O)[C@H](C)O2)[C@H](C)[C@@H](O[C@@H]2O[C@H](C)C[C@H](N(C)C(C)C)[C@H]2O)[C@](C)(O)C[C@@H](C)[C@H](OCC(=O)NCc2ccccc2)[C@H](C)[C@@H](O)[C@]1(C)O` [Compound A-59]: the EC50 in experiment [1] turned out to be 79 nM. The MIC in experiment [2] turned out to be 128 µg/mL (≈ 140 µM).
Taken in the same sequence, the figures for `CCOC(=O)CO[C@@H]1[C@H](C)[C@@H](O)[C@](C)(O)[C@@H](CC)OC(=O)[C@H](C)[C@@H](O[C@H]2C[C@@](C)(OC)[C@@H](O)[C@H](C)O2)[C@H](C)[C@@H](O[C@@H]2O[C@H](C)C[C@H](N(C)C(C)C)[C@H]2O)[C@](C)(O)C[C@H]1C` [Compound A-8] were 88 nM and 128 µg/mL (≈ 151 µM).
Taken in the same sequence, the figures for `CC[C@H]1OC(=O)[C@H](C)[C@@H](O[C@H]2C[C@@](C)(OC)[C@@H](O)[C@H](C)O2)[C@H](C)[C@@H](O[C@@H]2O[C@H](C)C[C@H](N(C)C(C)C)[C@H]2O)[C@](C)(O)C[C@@H](C)[C@H](OCCNC(C)=O)[C@H](C)[C@@H](O)[C@]1(C)O` [Compound A-30] were 48 nM and over 128 µg/mL.
Taken in the same sequence, the figures for `CC[C@H]1OC(=O)[C@H](C)[C@@H](O[C@H]2C[C@@](C)(OC)[C@@H](O)[C@H](C)O2)[C@H](C)[C@@H](O[C@@H]2O[C@H](C)C[C@H](N(C)C(C)C)[C@H]2O)[C@](C)(O)C[C@@H](C)[C@H](OCCOC)[C@H](C)[C@@H](O)[C@]1(C)O` [Compound A-5] were 320 nM and 64 µg/mL (≈ 77.9 µM).
Take `CC[C@H]1OC(=O)[C@H](C)[C@@H](O[C@H]2C[C@@](C)(OC)[C@@H](O)[C@H](C)O2)[C@H](C)[C@@H](O[C@@H]2O[C@H](C)C[C@H](N(C)CCO)[C@H]2O)[C@](C)(O)C[C@@H](C)[C@H](OC)[C@H](C)[C@@H](O)[C@]1(C)O` [Compound A-2]: in experiment [1], the EC50 stood at 140 nM. Further, in experiment [2], the MIC is 64 µg/mL (≈ 82.1 µM).
Taken in the same sequence, the figures for `CC[C@H]1OC(=O)[C@H](C)[C@@H](O[C@H]2C[C@@](C)(OC)[C@@H](O)[C@H](C)O2)[C@H](C)[C@@H](O[C@@H]2O[C@H](C)C[C@H](N(C)C3CCC3)[C@H]2O)[C@](C)(O)C[C@@H](C)[C@H](OCC(=O)NC)[C@H](C)[C@@H](O)[C@]1(C)O` [Compound A-51] were 510 nM and over 128 µg/mL.
Regarding `CC[C@H]1OC(=O)[C@H](C)[C@@H](O[C@H]2C[C@@](C)(OC)[C@@H](O)[C@H](C)O2)[C@H](C)[C@@H](O[C@@H]2O[C@H](C)C[C@H](N(C)C[C@H](C)O)[C@H]2O)[C@](C)(O)C[C@@H](C)[C@H](OCCOC)[C@H](C)[C@@H](O)[C@]1(C)O` [Compound A-6], the EC50 in experiment [1] turned out to be 1100 nM. In addition, the MIC in experiment [2] is 128 µg/mL (≈ 153 µM).
For `CC[C@H]1OC(=O)[C@H](C)[C@@H](O[C@H]2C[C@@](C)(OC)[C@@H](O)[C@H](C)O2)[C@H](C)[C@@H](O[C@@H]2O[C@H](C)C[C@H](N(C)C[C@H](C)O)[C@H]2O)[C@](C)(O)C[C@@H](C)[C@H](OCC(=O)N(C)C)[C@H](C)[C@@H](O)[C@]1(C)O` [Compound A-16], in experiment [1], the concentration for a half-maximal effect (EC50) was determined as 2900 nM. In addition, the MIC in experiment [2] is over 128 µg/mL.
Take `CC[C@H]1OC(=O)[C@H](C)[C@@H](O[C@H]2C[C@@](C)(OC)[C@@H](O)[C@H](C)O2)[C@H](C)[C@@H](O[C@@H]2O[C@H](C)C[C@H](N(C)C3CCC3)[C@H]2O)[C@](C)(O)C[C@@H](C)[C@H](OCC(N)=O)[C@H](C)[C@@H](O)[C@]1(C)O` [Compound A-13]: the EC50 in experiment [1] is 220 nM. Besides, the MIC in experiment [2] was over 128 µg/mL.
In the case of `CC[C@H]1OC(=O)[C@H](C)[C@@H](O[C@H]2C[C@@](C)(OC)[C@@H](O)[C@H](C)O2)[C@H](C)[C@@H](O[C@@H]2O[C@H](C)C[C@H](N(C)C(C)C)[C@H]2O)[C@](C)(O)C[C@@H](C)[C@H](OCC(=O)NC(C)C)[C@H](C)[C@@H](O)[C@]1(C)O` [Compound A-53], in experiment [1], the EC50 is 140 nM. For the same compound, the MIC in experiment [2] came to 128 µg/mL (≈ 148 µM).
`CC[C@H]1OC(=O)[C@H](C)[C@@H](O[C@H]2C[C@@](C)(OC)[C@@H](O)[C@H](C)O2)[C@H](C)[C@@H](O[C@@H]2O[C@H](C)C[C@H](N(C)C(C)C)[C@H]2O)[C@](C)(O)C[C@@H](C)[C@H](OCc2cc(C)on2)[C@H](C)[C@@H](O)[C@]1(C)O` [Compound A-27]: the half-maximal effective concentration (EC50) in experiment [1] came out at 110 nM. Also, in experiment [2], the MIC is 128 µg/mL (≈ 149 µM).
For `CC[C@H]1OC(=O)[C@H](C)[C@@H](O[C@H]2C[C@@](C)(OC)[C@@H](O)[C@H](C)O2)[C@H](C)[C@@H](O[C@@H]2O[C@H](C)C[C@H](N(C)C(C)C)[C@H]2O)[C@](C)(O)C[C@@H](C)[C@H](NS(C)(=O)=O)[C@H](C)[C@@H](O)[C@]1(C)O` [Compound A-35], the EC50 in experiment [1] worked out at 190 nM. In experiment [2], the MIC was 64 µg/mL (≈ 76.1 µM).
